Source: patent publication US20190119282A1, “IMIDAZOPYRIDAZINES USEFUL AS INHIBITORS OF THE PAR-2 SIGNALING PATHWAY” (Vertex Pharmaceuticals Incorporated, priority 2013, published 2019)

What was measured:
[1] = system: Thrombin-stimulated Ca2+ response in HT-29 cells; assay: Ca FLIPR TETRA assay, ANTAGONIST mode, stimulation with 1 U/mL Thrombin; assay type: cell-based, human; conditions: Homo sapiens, HT-29 cells, stimulation with 1 U/mL Thrombin
Procedure, shortened: (§1)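 Cells plated overnight at 37 °C, 5% CO2 in 1% FBS medium; dye loading 45 min at 37 °C then 15 min r.t.; compound added from DMSO/HBSS dilution; first read for intrinsic Ca2+ activation; 30 min r.t. incubation; antagonist read after addition of the fixed activator (8 μM SLIGKV, 1 U/mL thrombin, 3.1 U/mL trypsin or 0.6 μM UTP).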

[2] = system: UTP-stimulated Ca2+ response in HT-29 cells; assay: Ca FLIPR TETRA assay, ANTAGONIST mode, stimulation with 0.6 μM UTP; assay type: cell-based, human; conditions: Homo sapiens, HT-29 cells, stimulation with 0.6 μM UTP
Procedure, shortened: as §1

[3] = target: T1, PAR2 (HT-29 cells, SLIGKV activation) (Homo sapiens, UniProt P55085); assay: Ca FLIPR TETRA assay, ANTAGONIST mode, stimulation with 8 μM SLIGKV; assay type: cell-based; conditions: for IC50: HT-29 cells, stimulation with 8 μM SLIGKV
T1 construct: host or cells: HT-29 cells
T1 sequence (P55085 26-397): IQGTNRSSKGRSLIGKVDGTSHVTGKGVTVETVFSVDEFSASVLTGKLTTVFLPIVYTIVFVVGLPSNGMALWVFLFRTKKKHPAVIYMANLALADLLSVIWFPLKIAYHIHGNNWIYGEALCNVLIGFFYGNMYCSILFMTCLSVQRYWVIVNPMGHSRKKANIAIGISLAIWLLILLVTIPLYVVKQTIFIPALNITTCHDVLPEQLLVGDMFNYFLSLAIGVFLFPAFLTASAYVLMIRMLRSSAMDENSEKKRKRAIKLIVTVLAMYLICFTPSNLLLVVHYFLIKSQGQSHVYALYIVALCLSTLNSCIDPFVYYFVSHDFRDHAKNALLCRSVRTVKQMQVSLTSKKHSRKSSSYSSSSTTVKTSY
Procedure, shortened: as §1

[4] = target: T2, PAR2 (HT-29 cells, trypsin activation) (Homo sapiens, UniProt P55085); assay: Ca FLIPR TETRA assay, ANTAGONIST mode, stimulation with 3.1 U/mL trypsin; assay type: cell-based; conditions: HT-29 cells, stimulation with 3.1 U/mL trypsin
T2 construct: host or cells: HT-29 cells
T2 sequence (P55085 26-397): T1 sequence (P55085 26-397)
Procedure, shortened: as §1

`CC(C)c1cc(-c2ccc(F)c(F)c2)nn2cc(C(=O)N3CCNC(=O)C3(C)C)nc12` [Compound I-243] showed an IC50 ([1]; antagonist mode) of over 1000 nM, an IC50 ([2]; antagonist mode) of over 1000 nM and an IC50 ([3]; antagonist mode) of 4.1 nM. The IC50 ([4]; antagonist mode) was 8.5 nM.
In the case of `CC(C)(C)c1cc(-c2ccc(F)cc2)nn2cc(C(=O)N3CCN(C4COC4)C(=O)C3(C)C)nc12` [Compound I-210], the IC50 ([1]; antagonist mode) is reported as over 1000 nM, the IC50 ([2]; antagonist mode) is reported as over 1000 nM and the IC50 ([3]; antagonist mode) is reported as 4 nM. The IC50 ([4]; antagonist mode) was 3.5 nM.
Work on `CC(C)c1cc(-c2ccc(C(F)F)cc2)nn2cc(C(=O)N3CCN(C(=O)c4nc[nH]n4)CC3(C)C)nc12` [Compound I-294] yielded an IC50 ([1]; antagonist mode) of over 1000 nM, an IC50 ([2]; antagonist mode) of over 1000 nM and an IC50 ([3]; antagonist mode) of 8.8 nM. The IC50 ([4]; antagonist mode) was 13.7 nM.
With `CC(C)c1cc(-c2ccc(F)cc2)nn2cc(C(=O)N3CCN(C(=O)Cc4ccsc4)[C@@H](C)C3)nc12` [Compound I-125] the IC50 [1] was over 500 nM, the IC50 [2] was over 500 nM and the IC50 [3] was 2 nM. For the same compound, the IC50 [4] was 5 nM.
Compound `Cc1nnc(C(=O)N2CCN(C(=O)c3cn4nc(-c5ccc(F)c(Cl)c5)cc(C(C)(C)C)c4n3)C(C)(C)C2)o1` [Compound I-465] has an IC50 ([1]; antagonist mode) of over 1000 nM, an IC50 ([2]; antagonist mode) of over 1000 nM and an IC50 ([3]; antagonist mode) of 1.8 nM. For the same compound, the IC50 ([4]; antagonist mode) was 3.7 nM.
`Cc1n[nH]cc1C(=O)N1CCN(C(=O)c2cn3nc(-c4ccc(F)cc4)cc(C(C)(C)C)c3n2)C(C)(C)C1` [Compound I-292] was tested, and the IC50 ([1]; antagonist mode) was over 1000 nM, the IC50 ([2]; antagonist mode) was over 1000 nM and the IC50 ([3]; antagonist mode) was 2.4 nM. For the same compound, the IC50 ([4]; antagonist mode) was 2.2 nM.
`CCCCC(=O)N1CCN(C(=O)c2cn3nc(-c4ccc(F)cc4)cc(C(C)C)c3n2)C[C@@H]1C` [Compound I-147] showed an IC50 [1] of 8000 nM, an IC50 [2] of 6600 nM and an IC50 [3] of 6 nM. It also gave an IC50 [4] of 61 nM.
For `C[C@H]1CN(C(=O)c2cn3nc(-c4ccc(F)cc4)cc(C(F)(F)F)c3n2)CCN1C(=O)Oc1ccccc1` [Compound I-83], the IC50 [1] was over 50000 nM, the IC50 [2] was over 50000 nM and the “SLIGKV % @ concentration” value ([3]; @ 0.069 (μM)) was 46% @ 0.069. It also gave an IC50 [4] of over 50000 nM.
`CC(C)(O)C(=O)N1CCN(C(=O)c2cn3nc(-c4ccc(F)cc4)cc(C(F)(F)F)c3n2)C(C)(C)C1` [Compound I-36, 1-[4-[6-(4-Fluorophenyl)-8-(trifluoromethyl)imidazo[1,2-b]pyridazine-2-carbonyl]-3,3-dimethyl-piperazin-1-yl]-2-hydroxy-2-methyl-propan-1-one] gave an IC50 [1] of over 50000 nM, an IC50 [2] of over 50000 nM and an IC50 [3] of 71 nM. For the same compound, the IC50 [4] was 240 nM.
For `Cc1nc(C(=O)N2CCN(C(=O)c3cn4nc(-c5ccc(F)cc5)cc(C(C)(C)C)c4n3)C(C)(C)C2)nn1COP(=O)(O)O` [Compound I-485], the IC50 ([1]; antagonist mode) was over 1000 nM, the IC50 ([2]; antagonist mode) was over 1000 nM and the IC50 ([3]; antagonist mode) was 97 nM. The IC50 ([4]; antagonist mode) was 235 nM.
With `COC(=O)C1CC(C(=O)N2CCN(C(=O)c3cn4nc(-c5ccc(F)cc5)cc(C(C)(C)C)c4n3)C(C)(C)C2)C1` (stereo not shown) [Compound I-537] the IC50 ([1]; antagonist mode) was over 1000 nM, the IC50 ([2]; antagonist mode) was over 1000 nM and the IC50 ([3]; antagonist mode) was 0.8 nM. For the same compound, the IC50 ([4]; antagonist mode) was 1.2 nM.
Work on `CC1(C)CN(C(=O)C2(O)CCC2)CCN1C(=O)c1cn2nc(-c3ccc(F)cc3)cc(C(F)(F)F)c2n1` [Compound I-37, [6-(4-Fluorophenyl)-8-(trifluoromethyl)imidazo[1,2-b]pyridazin-2-yl]-[4-(1-hydroxycyclobutanecarbonyl)-2,2-dimethyl-piperazin-1-yl]methanone] yielded an IC50 [1] of over 50000 nM, an IC50 [2] of over 50000 nM and an IC50 [3] of 200 nM. The IC50 [4] was 250 nM.
`CC(C)c1cc(-c2ccccc2)nn2cc(C(=O)N3CCN(C(=O)C(C)(C)O)CC3(C)C)nc12` [Compound I-253] gave an IC50 ([1]; antagonist mode) of over 1000 nM, an IC50 ([2]; antagonist mode) of over 1000 nM and an IC50 ([3]; antagonist mode) of 92 nM. For the same compound, the IC50 ([4]; antagonist mode) was 185 nM.
Work on `Cc1cc(C(=O)N2CCN(C(=O)c3cn4nc(-c5ccc(C)c(F)c5)cc(C(C)C)c4n3)C(C)(C)C2)[nH]n1` [Compound I-335] yielded an IC50 ([1]; antagonist mode) of over 1000 nM, an IC50 ([2]; antagonist mode) of over 1000 nM and an IC50 ([3]; antagonist mode) of 0.8 nM. It also gave an IC50 ([4]; antagonist mode) of 0.6 nM.
For `CC(C)c1cc(-c2ccc(F)cc2)nn2cc(C(=O)N3CCN(C(=O)C(O)C(C)C)CC3(C)C)nc12` (stereo not shown) [Compound I-176], the IC50 [1] was 14000 nM, the IC50 [2] was 17000 nM and the IC50 [3] was 6 nM. It also gave an IC50 [4] of 11 nM.
In the case of `Cc1nc(C(=O)N2CCN(C(=O)c3cn4nc(-c5ccc(C)c(F)c5)cc(C(C)(C)C)c4n3)C(C)(C)C2)n[nH]1` [Compound I-416], the IC50 ([1]; antagonist mode) is reported as over 1000 nM, the IC50 ([2]; antagonist mode) is reported as over 1000 nM and the IC50 ([3]; antagonist mode) is reported as 0.6 nM. It also gave an IC50 ([4]; antagonist mode) of 0.6 nM.
With `Cc1cc(-c2ccc(F)cc2)nn2cc(C(=O)N3CCN(C(=O)OCc4ccccc4)[C@@H](C)C3)nc12` [Compound I-8, (S)-Benzyl 4-(6-(4-fluorophenyl)-8-methylimidazo[1,2-b]pyridazine-2-carbonyl)-2-methylpiperazine-1-carboxylate] the IC50 [1] was 43000 nM, the IC50 [2] was 31000 nM and the IC50 [3] was 180 nM. It also gave an IC50 [4] of 690 nM.
`CC(C)(C)c1cc(-c2ccc(Cl)cc2)nn2cc(C(=O)N3CCN(C(=O)[C@H]4CC[C@@H](C(=O)O)CC4)CC3(C)C)nc12` [Compound I-490] showed an IC50 ([1]; antagonist mode) of over 1000 nM, an IC50 ([2]; antagonist mode) of over 1000 nM and an IC50 ([3]; antagonist mode) of 0.1 nM. It also gave an IC50 ([4]; antagonist mode) of 0.2 nM.
`CC(C)c1cc(-c2ccc(F)cc2)nn2cc(C(=O)N3CCN(C(=O)[C@H]4CCC(=O)N4)CC3(C)C)nc12` [Compound I-177] gave an IC50 [1] of 35000 nM, an IC50 [2] of 40000 nM and an IC50 [3] of 48 nM. It also gave an IC50 [4] of 82 nM.
`Cc1ccc(-c2cc(C(C)(C)C)c3nc(C(=O)N4CCN(c5c[nH]cn5)C(=O)C4(C)C)cn3n2)cc1F` [Compound I-360] showed an IC50 ([1]; antagonist mode) of over 1000 nM, an IC50 ([2]; antagonist mode) of over 1000 nM and an IC50 ([3]; antagonist mode) of 4.6 nM. The IC50 ([4]; antagonist mode) was 3 nM.
Work on `Cc1ccc(-c2cc(C(C)(C)C)c3nc(C(=O)N4CCN(C(=O)c5cc(C)n[nH]5)CC4(C)C)cn3n2)cc1` [Compound I-395] yielded an IC50 ([1]; antagonist mode) of over 1000 nM, an IC50 ([2]; antagonist mode) of over 1000 nM and an IC50 ([3]; antagonist mode) of 0.6 nM. It also gave an IC50 ([4]; antagonist mode) of 0.5 nM.
Work on `CC(C)(C)c1cc(-c2ccc(F)c(Cl)c2)nn2cc(C(=O)N3CCNC(=O)C3(C)C)nc12` [Compound I-438] yielded an IC50 ([1]; antagonist mode) of over 1000 nM, an IC50 ([2]; antagonist mode) of over 1000 nM and an IC50 ([3]; antagonist mode) of 1.5 nM. For the same compound, the IC50 ([4]; antagonist mode) was 2.6 nM.
For `Cc1n[nH]c(C(=O)N2CCN(C(=O)c3cn4nc(-c5ccc(F)cc5)cc(C(C)C)c4n3)CC2)n1` [Compound I-552], the IC50 ([1]; antagonist mode) was over 1000 nM, the IC50 ([2]; antagonist mode) was over 1000 nM and the IC50 ([3]; antagonist mode) was 720 nM. It also gave an IC50 ([4]; antagonist mode) of 720 nM.
Work on `CC(C)c1cc(-c2ccc(F)cc2)nn2cc(C(=O)N3CCN(C(=O)C4(N)CC4)[C@@H](C)C3)nc12` [Compound I-154] yielded an IC50 [1] of over 50000 nM, an IC50 [2] of over 50000 nM and an IC50 [3] of 1400 nM. The IC50 [4] was 6400 nM.
With `CC(C)c1cc(-c2ccc(F)cc2)nn2cc(C(=O)N3CCN(C(=O)C4(NC(=O)OC(C)(C)C)CCC4)[C@@H](C)C3)nc12` [Compound I-149] the IC50 [1] was over 50000 nM, the IC50 [2] was over 50000 nM and the IC50 [3] was 30 nM. It also gave an IC50 [4] of 57 nM.
In the case of `CC(C)c1cc(-c2ccc(F)c(F)c2)nn2cc(C(=O)N3CCN(C(=O)c4ccncn4)CC3(C)C)nc12` [Compound I-259], the IC50 ([1]; antagonist mode) is reported as over 1000 nM, the IC50 ([2]; antagonist mode) is reported as over 1000 nM and the IC50 ([3]; antagonist mode) is reported as 6.2 nM. For the same compound, the IC50 ([4]; antagonist mode) was 16.5 nM.
`Cc1ccc(-c2cc(C(C)(C)C)c3nc(C(=O)N4CCN(C(=O)c5nc(C)n[nH]5)CC4(C)C)cn3n2)cc1` [Compound I-397] showed an IC50 ([1]; antagonist mode) of over 1000 nM, an IC50 ([2]; antagonist mode) of over 1000 nM and an IC50 ([3]; antagonist mode) of 0.6 nM. It also gave an IC50 ([4]; antagonist mode) of 0.6 nM.
In the case of `CC(C)c1cc(C2=CCCC2)nn2cc(C(=O)N3CCN(C(=O)C4(O)CCC4)CC3(C)C)nc12` [Compound I-43, [6-(Cyclopenten-1-yl)-8-isopropyl-imidazo[1,2-b]pyridazin-2-yl]-[4-(1-hydroxycyclobutanecarbonyl)-2,2-dimethyl-piperazin-1-yl]methanone], the IC50 [1] is reported as 27000 nM, the IC50 [2] is reported as 31000 nM and the IC50 [3] is reported as 480 nM. It also gave an IC50 [4] of 1100 nM.
